# “Also recorded” adds a separate entry of the source.
# Legend:
# [1] = system: GHB binding sites i.e. CaMK2a; conditions: previously published; cited from earlier work
# [2] = type: in vitro ADME, mouse; conditions: plasma and liver microsomes; converted to parent JON-11 instantly
# Experimental: (§1) Metabolic stability analysis was performed on a Bruker Avance Ultra High Performance Liquid Chromatography (UHPLC) (Bruker Daltonik, Bremen, Germany) equipped with a CTC-PAL-xt autosampler with cooled sample compartments (10 °C) and a column oven held at 40 °C. The UHPLC eluate was directed to a Bruker Evoq Elite triple quad-ropole MS equipped with a heated electrospray ionization source operated in positive ionization mode. Separation of 15 µL sample was obtained using a Phenomenex (Phenomenex, Torrance, CA, USA) Kinetex XB-C18 column (50 mm × 2.1 mm i.d., 1.7 µm particle size) equipped with a guard column. The analytes were separated using a solvent system consisting of water/acetonitrile (95:5, v/v) (eluent A) and water/acetonitrile (5:95, v/v) (eluent B); both acidified with 0.1% formic acid. The eluent flow rate was maintained at 0.4 mL/min with the following gradient elution profile: 0 min: 0% B; 5 min: 100% B; 6 min: 100% B, followed by three min equilibration at 0% B. Two ion transitions were monitored for all analytes and internal standard.
# The mouse liver microsome assay was performed by transferring 25 µL of a 20 µM solution of the test compound (0.5% DMSO), dissolved in potassium phosphate monobasic buffer (pH 7.4) containing 3 mM MgCl2, to 9 wells in a microtiter plate. To each well, […] of a 0.5 mg/mL mouse liver (Sigma Aldrich) in buffer was added, and the microtiter plate were pre-incubated for 5 min at 37 °C in a plate shaker at 600 rpm. After pre-incubation, 50 µL 37 °C NADPH regenerating system, consisting of 2 mM NADP+, 10mM glucose-6-phosphate, and 2 U/mL glucose-6-phosphate dehydrogenase dissolved in buffer, was added to start the assay. In triplicates, immediately after adding the NADPH solution, 75 µL was transferred to an Eppendorf tube, containing […] ice-cold acetonitrile with 400 ng/mL internal standard (7). Similarly, samples were prepared after 30 min and 60 min incubation at 37 °C. The samples were vortexed for 30 seconds and centrifuged at 16,000 × g for 10 minutes before analyzing the supernatant. The individual analyte responses were normalized to the internal standard. Diazepam was used as positive control.
# The mouse […] assay was performed by transferring 75 µL of a 10 µM solution of the test compound (0.5% DMSO), dissolved in PBS buffer (pH 7.4), to 9 wells in a microtiter plate. To each well, 75 µL mouse plasma, harvested from in-house mice into K2-EDTA tubes and centrifuged at 1,600 × g, was added. […]
# (§2) The metabolic stabilities of JON-11 and the prodrugs 1a, 8-12, 19 and 20 were determined in vitro in rat plasma and rat liver microsomes. […] The corresponding loss of prodrug compounds and formation of parent drug JON-11 was determined by UHPLC-MS.
# [3] = biological target: T1, GHB high-affinity binding site/CaMK2a (Rattus norvegicus, UniProt P11275); experiment: Rat brain membrane [3H]NCS-382 binding assay; conditions: for Ki: 16 nM [3H]NCS-382, rat cortical synaptic membranes, pH 6.0, 0-4 °C
# T1 construct: rat (Sprague-Dawley) cortical synaptic membranes (P2 synaptosomes) were prepared; from tissue; host or cells: rat (Sprague-Dawley) cortical synaptic membranes (P2 synaptosomes)
# Experimental: According to previously published protocols, rat (Sprague-Dawley) cortical synaptic membranes (P2 synaptosomes) were prepared and stored at -20 °C until the day of assay (Wellendorph et al., 2005). Membranes were then washed three times with binding buffer (50 mM potassium phosphate buffer pH 6.0). The binding protocol was performed in 96-well microplates. In brief, compounds were incubated with 16 nM [^3H]NCS-382 radioligand and membranes for 60 min at 0-4 °C, filtered through GF/C filter plates (PerkinElmer) using a 96-well harvester (Packard), rapidly washed three times with ice-cold binding buffer, and filter plates dried. CPM values were determined using liquid scintillation counting in a TopCount NXT Microplate Scintillation & Luminescence Counter (PerkinElmer). Curves were generated using non-linear regression (GraphPad Prism 7, GraphPad Prism Software, San Diego, CA, USA).
# JON-11, related analogues, and pro-JON-11(10) were tested in the [^3H]NCS-382 binding assay (Wellendorph et al., 2005).
# [4] = type: in vitro ADME, mouse; conditions: rat liver microsomes as printed
# Experimental: as §1, with “standard. […]” for “standard.”
# as §2
# [5] = Mouse plasma assay (metabolic stability); type: in vitro ADME; conditions: rat plasma as printed
# Experimental: as §1, with “standard. […]” for “standard.”
# as §2
# in vivo = experiment: in vivo; design: species or system mice; conditions: C57BL/6JRj, mouse, ip, male mice, dose 10 mg/kg i.p., 30 min, read-out: B/P ratio
# Experimental: To evaluate the ability of pro-JON-11 (10) and JON-11 to penetrate the blood-brain barrier, a brain-to-plasma distribution ratio (B/P ratio) was obtained. All subjects were male C57BL/6JRj mice (24-26 g, Janvier Labs, France) housed in groups of three-four with ad libitum access to food and water. The mice were maintained under diurnal conditions (12-h light/dark cycle with lights on at 7 AM) in a temperature (22±1 °C) and humidity-controlled room (50±10%). Ethical permission for the procedures used in this in vivo study was granted by the Danish Animal Experiments Inspectorate.
# Compounds were dissolved in PEG-400 (Sigma) at 20% of the final required volume. The final volume was then made up by 10% (w/v) hydroxypropyl-beta-cyclodextrin (Sigma Aldrich) in sterile saline. The solution was sonicated for 5 min. The JON-11 solution was pH-adjusted to 7.4 with 0.2% 2M NaOH.
# Both compounds were injected i.p. at a dose of 10 mg/kg (n=3 for each compound). […] After 30 min, the animals were sacrificed by decapitation, trunk blood was collected in EDTA-coated tubes and the brain was gently removed. Blood and tissues were temporarily stored on ice until plasma and brain homogenate preparation. Blood plasma was separated from cells by centrifugation for 10 min at 1,500 x g at 4 °C and plasma harvested. […]
# Plasma and brain exposure of JON-11 and pro-JON-11 were evaluated in male mice. […]
# LAT-1 [6] = biological target: T2, LAT-1 (Homo sapiens, UniProt Q01650); experiment: LAT-1 relative exchange efflux of [3H]leucine in HEK293T cells; type: cell-based; conditions: HEK293T cells endogenously expressing LAT-1
# T2 construct: endogenous in cells; host or cells: HEK293T
# Text: (§3) To test selected prodrugs for substrate activity at LAT-1, we characterised the uptake and efflux of [^3H]leucine in the presence of compounds. For this purpose we used HEK293T cells endogenously expressing a functionally competent LAT-1, and performed assays according to Chien et al., 2018 to measure A) uptake and B) relative exchange efflux rate (L-leucine as control).
# LAT-1 [7] = biological target: T2, LAT-1; experiment: LAT-1 [3H]leucine uptake in HEK293T cells; type: cell-based; conditions: HEK293T cells endogenously expressing LAT-1
# Text: as §3
# T2 sequence (Q01650 whole entry): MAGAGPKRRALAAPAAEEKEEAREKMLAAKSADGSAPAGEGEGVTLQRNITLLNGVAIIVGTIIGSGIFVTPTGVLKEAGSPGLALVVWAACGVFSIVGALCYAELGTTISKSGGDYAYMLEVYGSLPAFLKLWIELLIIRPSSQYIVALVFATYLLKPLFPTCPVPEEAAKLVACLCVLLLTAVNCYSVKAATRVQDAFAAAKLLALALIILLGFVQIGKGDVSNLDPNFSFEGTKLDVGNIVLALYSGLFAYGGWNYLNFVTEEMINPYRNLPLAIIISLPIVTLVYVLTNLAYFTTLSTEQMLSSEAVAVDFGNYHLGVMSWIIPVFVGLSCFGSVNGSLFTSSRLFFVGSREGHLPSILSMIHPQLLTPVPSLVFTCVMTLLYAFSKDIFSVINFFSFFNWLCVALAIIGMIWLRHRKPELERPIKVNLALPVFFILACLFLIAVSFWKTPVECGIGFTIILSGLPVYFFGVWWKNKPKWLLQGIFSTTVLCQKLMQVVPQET
# T2 sequence (P08195 102-630 partner): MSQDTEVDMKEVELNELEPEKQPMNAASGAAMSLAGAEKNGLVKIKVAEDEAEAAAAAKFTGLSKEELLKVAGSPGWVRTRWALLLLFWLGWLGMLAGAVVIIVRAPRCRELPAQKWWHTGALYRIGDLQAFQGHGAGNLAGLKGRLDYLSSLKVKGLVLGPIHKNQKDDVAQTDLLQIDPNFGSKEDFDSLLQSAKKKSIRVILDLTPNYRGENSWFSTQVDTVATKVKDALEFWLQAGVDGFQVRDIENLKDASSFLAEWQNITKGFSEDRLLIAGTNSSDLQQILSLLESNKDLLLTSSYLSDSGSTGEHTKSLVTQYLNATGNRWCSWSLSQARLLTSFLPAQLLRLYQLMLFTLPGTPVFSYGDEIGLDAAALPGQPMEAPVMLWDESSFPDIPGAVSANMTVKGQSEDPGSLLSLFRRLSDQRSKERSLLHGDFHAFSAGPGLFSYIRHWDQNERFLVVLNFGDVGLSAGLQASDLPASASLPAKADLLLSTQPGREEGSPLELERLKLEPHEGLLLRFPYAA
# T1 sequence (P11275 whole entry): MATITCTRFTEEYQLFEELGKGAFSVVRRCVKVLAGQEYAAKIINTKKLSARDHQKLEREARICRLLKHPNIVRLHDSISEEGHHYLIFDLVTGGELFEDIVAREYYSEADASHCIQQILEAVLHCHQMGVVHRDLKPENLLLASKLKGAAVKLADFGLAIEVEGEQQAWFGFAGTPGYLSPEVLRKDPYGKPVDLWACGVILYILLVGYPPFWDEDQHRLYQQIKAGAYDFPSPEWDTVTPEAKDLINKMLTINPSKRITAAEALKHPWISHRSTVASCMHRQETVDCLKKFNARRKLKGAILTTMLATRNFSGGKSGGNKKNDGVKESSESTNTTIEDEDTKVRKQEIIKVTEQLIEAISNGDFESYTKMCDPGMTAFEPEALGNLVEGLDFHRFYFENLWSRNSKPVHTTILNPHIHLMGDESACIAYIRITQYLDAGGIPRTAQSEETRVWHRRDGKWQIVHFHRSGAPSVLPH
compound,measurement,setting,value
"O=C(O)C1=CC(O)CC1 (stereo not shown) [HOCPCA, 3-hydroxycyclopent-1-enecarboxylic acid]",affinity relative to GHB,[1],27 times
"CC(C)(C)C(=O)OCOC(=O)Cc1cn2nc(-c3ccc(Cl)cc3)ccc2n1 [compound 9, (2-(6-(4-Chlorophenyl)imidazo[1,2-b]pyridazin-2-yl)acetoxy)methyl pivalate]",chemical/metabolic stability of prodrug,[2],highly chemical/metabolic unstable
"COc1cccc(-c2ccc3nc(CC(=O)O)cn3n2)c1 [compound 5, 2-(6-(3-Methoxyphenyl)imidazo[1,2-b]pyridazin-2-yl)acetic acid]",Ki,[3],440 nM
"CC(C)(C)OC(=O)Cc1cn2nc(-c3ccc(Cl)cc3)ccc2n1 [compound 10, tert.Butyl 2-(6-(4-chlorophenyl)imidazo[1,2-b]pyridazin-2-yl)acetate]",displacement of radioligand binding,"[3]; [3H]NCS-382, concentrations up to 10 µM",failed to displace radioligand binding
same,stability in liver microsomes,[4],high stability
same,half-life at 5 µM,[5]; pH 7.4,~1 h
same,stability in plasma,[5],fair stability
same,Kp at 30 min,in vivo,2.24
"O=C(O)Cc1cn2nc(-c3ccc(Cl)c(Cl)c3)ccc2n1 [compound 7, 2-(6-(3,4-Dichlorophenyl)imidazo[1,2-b]pyridazin-2-yl)acetic acid]",Ki,[3],190 nM
"CCOC(=O)Cc1cn2nc(-c3ccc(Cl)cc3)ccc2n1 [1a, ethyl 2-(6-(4-chlorophenyl)imidazo[1,2-b]pyridazin-2-yl)acetate]",chemical/metabolic stability of prodrug,[2],highly chemical/metabolic unstable
O=C(O)Cc1cn2nc(-c3cccc(OCc4ccccc4)c3)ccc2n1 [compound 3],Ki,[3],510 nM
"COc1ccc(-c2ccc3nc(CC(=O)O)cn3n2)cc1 [compound 6, 2-(6-(4-Methoxyphenyl)imidazo[1,2-b]pyridazin-2-yl)acetic acid]",Ki,[3],830 nM
"N[C@@H](Cc1cccc(NC(=O)Cc2cn3nc(-c4ccc(Cl)cc4)ccc3n2)c1)C(=O)O [compound 11, (S)-2-amino-3-(3-(2-(6-(4-chlorophenyl)imidazo[1,2-b]pyridazin-2-yl)acetamido)phenyl)propanoic acid]",exchange for [3H]leucine (relative exchange efflux),LAT-1 [6],cannot be exchanged
same,competition with [3H]leucine uptake at LAT-1,LAT-1 [7],LAT1 inhibitor; also recorded: competes
"O=C(O)Cc1cn2nc(-c3cccc(Cl)c3)ccc2n1 [compound 2, 2-(6-(3-Chlorophenyl)imidazo[1,2-b]pyridazin-2-yl)acetic acid]",Ki,[3],230 nM
O=C(O)CCC(O)c1ccc(OCc2ccccc2)cc1 (stereo not shown) [BnOPh-GHB],affinity relative to GHB,[1],39 times
"CC(=O)OCOC(=O)Cc1cn2nc(-c3ccc(Cl)cc3)ccc2n1 [compound 8, Acetoxymethyl 2-(6-(4-chlorophenyl)imidazo[1,2-b]pyridazin-2-yl)acetate]",chemical/metabolic stability of prodrug,[2],highly chemical/metabolic unstable
"N[C@@H](Cc1ccc(NC(=O)Cc2cn3nc(-c4ccc(Cl)cc4)ccc3n2)cc1)C(=O)O [compound 12, (S)-2-amino-3-(4-(2-(6-(4-chlorophenyl)imidazo[1,2-b]pyridazin-2-yl)acetamido)phenyl)propanoic acid]",competition with [3H]leucine uptake at LAT-1,LAT-1 [7],not
"O=C(O)Cc1cn2nc(-c3ccc(OCc4ccccc4)cc3)ccc2n1 [compound 4, 2-(6-(4-(benzyloxy)phenyl)imidazo[1,2-b]pyridazin-2-yl)acetic acid]",Ki,[3],2200 nM

# Reference: EP3952873B1 (priority 2019, dated 2020)
